# Where “and” joins values, the source holds several entries; their conditions need not be identical. Equal entries are not always repeated.
# Assays:
# PR10-10 = molecular target: T1, PR10-10 (Papaver somniferum, UniProt A0A9Y2YA81); experiment: ANS fluorescence binding curve (direct ANS-protein affinity); details: weak signal, Kd not determined
# T1 sequence (A0A9Y2YA81 1-158): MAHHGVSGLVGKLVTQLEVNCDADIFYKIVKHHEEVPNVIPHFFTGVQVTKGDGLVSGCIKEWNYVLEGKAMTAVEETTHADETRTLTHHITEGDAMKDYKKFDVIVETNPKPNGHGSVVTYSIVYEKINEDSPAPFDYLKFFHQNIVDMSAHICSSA
# Description: (§1) 8-anilino-1-naphthalenesulfonic acid (ANS) fluorescence binding curves and the binding-induced reduction in ANS fluorescence resulting from competition with tested ligands across a range of concentration facilitated the measurement of IC50 and an estimate of Kd values using the binding models and procedures described previously[70]. […] ANS was dissolved in dimethylsufoxide at a concentration of 20 mM, stored at −20 °C until dilution and protected from exposure to light. […] 40 µl of the ANS solution and 40 µl of each MLP/PR10 protein solution were combined to 80 µl final reaction volumes, which were incubated at 21 °C for 10 min to allow equilibration of binding. […] An identical reaction series whereby protein was omitted from the mixtures was measured under identical conditions and trace fluorescence was subtracted from each MLP/PR10 protein-containing sample. Each data set was scaled so that the maximum observed fluorescence corresponded to 100% and individual data points were plotted, and a rectangular hyperbolic ligand binding function was fit, using least-squares analysis (Prism 5 software, Graphpad, USA). Experiments were repeated at least twice with independently prepared protein.
# PR10-4 = details: read-out: Kd (ANS-protein, apparent); ANS 10 µM fixed, protein 0 to 100 µM; CBS pH 5.5; one-site hyperbolic model
# Description: (§2) 8-anilino-1-naphthalenesulfonic acid (ANS) fluorescence binding curves and the binding-induced reduction in ANS fluorescence resulting from competition with tested ligands across a range of concentration facilitated the measurement of IC50 and an estimate of Kd values using the binding models and procedures described previously[70]. […] ANS was dissolved in dimethylsufoxide at a concentration of 20 mM, stored at −20 °C until dilution and protected from exposure to light. […] 40 µl of the ANS solution and 40 µl of each MLP/PR10 protein solution were combined to 80 µl final reaction volumes, which were incubated at 21 °C for 10 min to allow equilibration of binding. Triplicate 18-µl aliquots were withdrawn from each 80 µl reaction, transferred to optically clear PCR tubes (Diamed, Canada) and ANS fluorescence was measured following an additional 3-min incubation at 30 °C using a Qiagen Rotor-gene Q 6-plex with excitation and emission filters of 365 ± 20 nm and 460 ± 20 nm, respectively. An identical reaction series whereby protein was omitted from the mixtures was measured under identical conditions and trace fluorescence was subtracted from each MLP/PR10 protein-containing sample. […]
# PR10-12 = details: read-out: Kd (ANS-protein, apparent); ANS 10 µM fixed, protein 0 to 100 µM; CBS pH 5.5; one-site hyperbolic model
# Description: as §2
# MLP2 = details: read-out: Kd (ANS-protein, apparent); ANS 10 µM fixed, protein 0 to 100 µM; CBS pH 5.5; one-site hyperbolic model
# Description: as §2
# THS2 = THS2 (Papaver somniferum, UniProt A0A2U9GGW3); experiment: ANS fluorescence binding curve (direct ANS-protein affinity); design: made in house; host or cells: E. coli ArcticExpress (DE3); details: Kd (ANS-protein, apparent), ANS 10 µM fixed, protein 0 to 100 µM; CBS pH 5.5; one-site hyperbolic model
# Description: as §1
# NISO [1] = molecular target: T2, NISO (Papaver somniferum, UniProt P0DYP9); experiment: as above; design: made in house; host or cells: E. coli ArcticExpress (DE3); details: Kd (ANS-protein, apparent), ANS 10 µM fixed, protein 0 to 100 µM; CBS pH 5.5; one-site hyperbolic model
# Description: as §1
# MLP15 [2] = molecular target: T3, MLP15 (Papaver somniferum, UniProt P19825); experiment: as above; design: made in house; host or cells: E. coli ArcticExpress (DE3); details: Kd (ANS-protein, apparent), ANS 10 µM fixed, protein 0 to 100 µM; CBS pH 5.5; one-site hyperbolic model
# T3 sequence (P19825 1-159): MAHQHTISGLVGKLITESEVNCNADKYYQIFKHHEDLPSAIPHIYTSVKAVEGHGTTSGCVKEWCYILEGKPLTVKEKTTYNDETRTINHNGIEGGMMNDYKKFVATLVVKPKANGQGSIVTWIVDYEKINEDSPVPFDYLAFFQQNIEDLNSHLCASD
# Description: as §1
# MLP15 [3] = molecular target: T3, MLP15; experiment: Isothermal titration calorimetry; assay type: binding; design: made in house; host or cells: E. coli ArcticExpress (DE3); details: ITC, CBS pH 5.5, 25 °C
# Description: ITC experiments were conducted using a Microcal VP instrument (Malvern Pananalytical, Malvern, UK). […] Dialysis was carried out in boiled Spectra/Por 1 6–8 kDa MWCO 0.32 ml/cm (Spectrum Labs, USA) tubing thoroughly washed with either buffer before use. The second 1000-fold volume of dialysis buffer was filtered and degassed using a reusable bottle-top filtration apparatus (Nalgene, USA) with disposable […] cellulose filters (VWR, Canada) prior to storage at 4 °C. Ligands were dissolved in the filtered dialysis buffer at 21 °C for approximately one hour, and any insoluble material was removed by repeated centrifugation at 21,000 × g for 10 min. […] Prior to ITC, which was initiated immediately following dialysis, the protein solutions were centrifuged at 17,000 × g and 4 °C for 30 min. Any precipitate was separated from the remaining soluble protein fraction which was quantified by absorption at A280nm and diluted with filtered dialysis buffer immediately before use.
# Thermograms were recorded at 25 °C, with a reference power of 10 (dpu/sec) and monitoring of 30 injections of 9 µl BIA ligand solutions into a sample cell containing 1.4 ml of an MLP/PR10 protein solution, with 300 seconds between injections. […] To ensure that we report only the heat of reaction for each interaction, independent titrations of ligand into buffer, and buffer into protein solutions, were used to calculate and then subtract heats of dilution. After subtraction, binding isotherms were analyzed in MicroCal Origin 7 (MicroCal, USA) by fitting a single-site binding model using non-linear least squares regression analysis repeated until convergence. […] Each ITC experiment was repeated 2 to 4 times.
# THS = details: cited from earlier work
# NISO [4] = molecular target: T2, NISO; design: made in house; host or cells: E. coli ArcticExpress (DE3); details: read-out: Km app (substrate kinetics); cited from earlier work
# T2 sequence (P0DYP9 entry or part of it): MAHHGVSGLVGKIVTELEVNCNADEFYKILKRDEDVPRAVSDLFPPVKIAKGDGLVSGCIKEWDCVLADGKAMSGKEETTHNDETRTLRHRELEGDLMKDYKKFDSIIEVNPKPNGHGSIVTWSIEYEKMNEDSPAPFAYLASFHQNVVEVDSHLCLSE
# Chain of THS2 (A0A2U9GGW3 whole entry): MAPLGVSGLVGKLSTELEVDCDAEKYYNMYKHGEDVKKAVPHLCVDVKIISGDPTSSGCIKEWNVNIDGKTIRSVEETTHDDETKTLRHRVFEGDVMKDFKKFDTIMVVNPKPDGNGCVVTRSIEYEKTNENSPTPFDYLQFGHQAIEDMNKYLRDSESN
smiles,measurement,setting,value
"O=S(=O)(O)c1cccc2cccc(Nc3ccccc3)c12 [ANS, 8-anilinonaphthalene-1-sulfonic acid]",ANS binding to PR10-10 (in words),PR10-10,did not bind ANS in a typical manner
same,Kd,PR10-4,107 ± 15.3 µM
same,Kd,PR10-12,356 ± 139 µM
same,Kd,MLP2,28.6 ± 3.9 µM
same,Kd,THS2,21 µM and 20.9 µM
same,Kd,NISO [1],61 µM and 60.5 µM
same,Kd,MLP15 [2],78 µM and 78.4 µM
same,ΔH,MLP15 [3],-14.69 ± 0.4972 kcal/mol
same,ΔS,MLP15 [3],-29.8 cal/mol/˚K
same,Kd,MLP15 [3]; single-site model,55.3 ± 2.8 µM
same,N,MLP15 [3]; single-site model,1.06 ± 0.0244
COC1=C[C@]23CCN(C)[C@H](Cc4ccc(OC)c(O)c42)C3=C[C@@H]1OC(C)=O [salutaridinol-7-O-acetate],KA (substrate kinetics),THS,22 µM
COc1ccc2c3c1O[C@H]1C(=O)C=C[C@H]4[C@@H](C2)N(C)CC[C@]314 [codeinone],Km,NISO [4],48 µM
